Measurements published in PubChem BioAssay (NCI).
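Dose response: 5 concentrations. Exposure: 48 h. Format: 96-well plates. Endpoint: linear interpolation; highest concentration if not reached. The concentration for full growth arrest is given as TGI.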

What was measured:
Test in all cases: growth of human tumour cells (NCI), 48 h
M14 melanoma = tested on: M14 melanoma
MALME-3M melanoma = tested on: MALME-3M melanoma
SNB-19 CNS = tested on: SNB-19 CNS
SW-620 colon = tested on: SW-620 colon
UO-31 renal = tested on: UO-31 renal
BT-549 breast = tested on: BT-549 breast
SF-295 CNS = tested on: SF-295 CNS
COLO 205 colon = tested on: COLO 205 colon
SF-268 CNS = tested on: SF-268 CNS
SK-OV-3 ovarian = tested on: SK-OV-3 ovarian
OVCAR-5 ovarian = tested on: OVCAR-5 ovarian
HT29 colon = tested on: HT29 colon
KM12 colon = tested on: KM12 colon
HCT-15 colon = tested on: HCT-15 colon
MDA-N = tested on: MDA-N
LOX IMVI melanoma = tested on: LOX IMVI melanoma
HCC-2998 colon = tested on: HCC-2998 colon
PC-3 prostate = tested on: PC-3 prostate
SR leukemia = tested on: SR leukemia
K-562 leukemia = tested on: K-562 leukemia

| Compound | TGI (M14 melanoma) [µM] | TGI (MALME-3M melanoma) [µM] | TGI (SNB-19 CNS) [µM] | TGI (SW-620 colon) [µM] | TGI (UO-31 renal) [µM] | TGI (BT-549 breast) [µM] | TGI (SF-295 CNS) [µM] | TGI (COLO 205 colon) [µM] | TGI (SF-268 CNS) [µM] | TGI (SK-OV-3 ovarian) [µM] | TGI (OVCAR-5 ovarian) [µM] | TGI (HT29 colon) [µM] | TGI (KM12 colon) [µM] | TGI (HCT-15 colon) [µM] | TGI (MDA-N) [µM] | TGI (LOX IMVI melanoma) [µM] | TGI (HCC-2998 colon) [µM] | TGI (PC-3 prostate) [µM] | TGI (SR leukemia) [µM] | TGI (K-562 leukemia) [µM] |
| --- | --- | --- | --- | --- | --- | --- | --- | --- | --- | --- | --- | --- | --- | --- | --- | --- | --- | --- | --- | --- |
| N#CC(c1nc2ccccc2s1)c1nc(Cl)ncc1Br (stereo not given) | > 100 | > 100 | > 100 | > 100 | > 100 | 80.5 | > 100 | > 100 | > 100 | > 100 | > 100 | > 100 | > 100 | > 100 | > 100 | > 100 | – | – | – | – |
| CC1(C)C2CCC1(C)C(N/C(=C(/C(Cl)=C(Cl)Cl)[N+](=O)[O-])n1nnc3ccccc31)C2 (stereo not given) | > 100 | 39.4 | 55.7 | > 100 | 51 | 48.5 | 52.3 | 34.4 | 37.9 | > 100 | > 100 | > 100 | 87.9 | 93.4 | > 100 | > 100 | > 100 | 48.3 | – | – |
| N#Cc1ccc(/C=N/NC(=O)CSCC(=O)N/N=C/c2ccc(C#N)cc2)cc1 | > 100 | > 100 | > 100 | > 100 | > 100 | – | > 100 | > 100 | > 100 | > 100 | > 100 | > 100 | > 100 | > 100 | – | – | > 100 | > 100 | > 100 | > 100 |
| Cc1c(NC(=S)N/N=C\C(=N/NC(=S)Nc2c(C)n(C)n(-c3ccccc3)c2=O)c2ccccc2)c(=O)n(-c2ccccc2)n1C | > 100 | > 100 | > 100 | > 100 | > 100 | > 100 | > 100 | > 100 | > 100 | > 100 | > 100 | > 100 | > 100 | > 100 | – | – | > 100 | > 100 | > 100 | – |
| CC(C)=CC(C)C(C(O)CCC1(c2ccoc2)OCCO1)S(=O)(=O)c1ccccc1 (stereo not given) | > 100 | > 100 | > 100 | > 100 | > 100 | > 100 | > 100 | > 100 | > 100 | > 100 | > 100 | – | > 100 | > 100 | > 100 | > 100 | > 100 | > 100 | – | – |
| Cn1nc(-c2ccccc2)c(N=[N+]=[N-])cc1=O | > 100 | > 100 | > 100 | > 100 | > 100 | – | > 100 | > 100 | > 100 | > 100 | > 100 | > 100 | > 100 | > 100 | – | > 100 | > 100 | – | > 100 | > 100 |
| OCc1c2c(cc3c1CC1(C3)Cc3cc4c(c(CO)c3C1)CCC4)CCC2 | 32.9 | 30 | – | – | 3.22 | – | 26.9 | 42.4 | – | 33 | 34.6 | 32.4 | 31.2 | 34.6 | 29.2 | 28.7 | 35 | 39.9 | – | 21.9 |
| COc1cc2c(cc1OC)C1=Cc3ccc(OC)c(OC)c3C(C#N)N1CC2 (stereo not given) | > 100 | 82.9 | > 100 | > 100 | > 100 | 63.2 | > 100 | 43.8 | > 100 | > 100 | > 100 | > 100 | 58.7 | > 100 | > 100 | – | 51.1 | > 100 | – | – |
| CCOC(=O)c1[nH]cnc1/N=N/N(C)N | > 100 | > 100 | – | > 100 | > 100 | > 100 | > 100 | > 100 | > 100 | > 100 | > 100 | > 100 | 14 | > 100 | > 100 | > 100 | > 100 | > 100 | – | – |
| CCCN=C1Nc2ccccc2[C@@H]2N(C)c3ccccc3C(C)C[C@]12C (stereo not given in full) | 33 | 32.5 | 44.8 | 36 | 98.9 | – | 30.9 | 38 | 54.6 | – | 46.8 | 27.8 | 34.9 | 56.4 | 38.7 | 27.7 | 26.3 | 40.8 | – | > 100 |
| C/C=C1/CN2[C@@H](C3=C[C@@H]4[C@@H]5N(C3=O)c3ccccc3[C@@]53CCN5C/C(=C/C)[C@@H]4C[C@H]53)C[C@@]34c5ccccc5N5C(=O)CC=C([C@H]1C[C@H]23)[C@H]54 | 2.37 | 12.5 | 14.7 | 10.4 | 8.34 | 15.7 | 16.4 | 7.54 | 14.1 | 16.8 | 15 | 8.08 | 17 | 10.3 | 10.4 | – | 8.75 | 9.72 | – | 50 |
| Cc1ccc(S(=O)(=O)NC(=O)NC(Cc2ccccc2)C(=O)O)cc1 (stereo not given) | > 100 | > 100 | > 100 | > 100 | > 100 | > 100 | > 100 | > 100 | > 100 | > 100 | > 100 | > 100 | > 100 | > 100 | – | > 100 | – | > 100 | > 100 | > 100 |
| CN1c2ccccc2C(=O)NC12CCN(Cc1ccccc1)CC2 | > 100 | > 100 | > 100 | > 100 | > 100 | – | > 100 | > 100 | > 100 | > 100 | > 100 | > 100 | > 100 | > 100 | – | > 100 | > 100 | – | > 100 | – |
